Reference: ChEMBL document CHEMBL1143265, “Discovery of thiophene inhibitors of polo-like kinase” (Bioorg Med Chem Lett, 2009)
pIC50: −log10 of the molar value.

Legend:
NCI-N87 = experiment: Antiproliferative activity against human NCI-N87 cells after 3 days by methylene blue stain technique; type: functional, cell-based; details: NCI-N87, 72 h
[1] = Volume of distribution at steady state in mouse at 6.7 mg/kg, iv; type: ADME, organism-based; design: dose 6.7 mg/kg, route intravenous; details: in vivo, read-out: Vdss
PC-3 = experiment: Antiproliferative activity against human PC3 cells after 3 days by methylene blue stain technique; type: functional, cell-based; details: PC-3, 72 h
RKO = experiment: Antiproliferative activity against human RKO cells after 3 days by methylene blue stain technique; type: functional, cell-based; details: 72 h
HCT-116 = experiment: Antiproliferative activity against human HCT116 cells after 3 days by methylene blue stain technique; type: functional, cell-based; details: HCT-116, 72 h
[2] = target: Serine/threonine-protein kinase PLK1 (Homo sapiens, UniProt P53350); experiment: Inhibition of PLK1 expressed in baculovirus-infected Trichoplusia-ni cells by scintillation proximity assay
Sequence of Serine/threonine-protein kinase PLK1 (P53350 whole entry): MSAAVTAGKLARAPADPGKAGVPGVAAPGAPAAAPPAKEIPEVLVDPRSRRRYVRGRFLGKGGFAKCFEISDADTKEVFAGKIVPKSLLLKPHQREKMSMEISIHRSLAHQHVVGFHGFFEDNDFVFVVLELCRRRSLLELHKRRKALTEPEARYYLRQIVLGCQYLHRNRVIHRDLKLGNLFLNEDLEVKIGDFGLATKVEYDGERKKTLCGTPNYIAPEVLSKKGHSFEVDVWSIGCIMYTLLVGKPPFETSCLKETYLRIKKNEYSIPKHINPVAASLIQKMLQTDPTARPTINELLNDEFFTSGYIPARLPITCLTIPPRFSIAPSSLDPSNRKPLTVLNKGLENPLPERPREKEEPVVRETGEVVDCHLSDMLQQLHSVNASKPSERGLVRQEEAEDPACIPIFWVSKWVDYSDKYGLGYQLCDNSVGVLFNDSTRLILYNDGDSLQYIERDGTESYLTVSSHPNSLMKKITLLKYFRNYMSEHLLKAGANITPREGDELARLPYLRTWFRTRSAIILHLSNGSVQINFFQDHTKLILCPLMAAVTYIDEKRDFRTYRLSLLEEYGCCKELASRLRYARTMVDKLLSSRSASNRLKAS

A549 = experiment: Antiproliferative activity against human A549 cells after 3 days by methylene blue stain technique; type: functional, cell-based; details: A549, 72 h
[3] = Clearance in mouse at 6.7 mg/kg, iv; type: ADME, organism-based; design: dose 6.7 mg/kg, route intravenous; details: in vivo
[4] = Oral bioavailability in mouse at 10 mg/kg; type: ADME, organism-based; details: in vivo
[5] = target: Mitogen-activated protein kinase 14 (Homo sapiens, UniProt Q16539); experiment: Inhibition of p38alpha
Sequence of Mitogen-activated protein kinase 14 (Q16539 whole entry): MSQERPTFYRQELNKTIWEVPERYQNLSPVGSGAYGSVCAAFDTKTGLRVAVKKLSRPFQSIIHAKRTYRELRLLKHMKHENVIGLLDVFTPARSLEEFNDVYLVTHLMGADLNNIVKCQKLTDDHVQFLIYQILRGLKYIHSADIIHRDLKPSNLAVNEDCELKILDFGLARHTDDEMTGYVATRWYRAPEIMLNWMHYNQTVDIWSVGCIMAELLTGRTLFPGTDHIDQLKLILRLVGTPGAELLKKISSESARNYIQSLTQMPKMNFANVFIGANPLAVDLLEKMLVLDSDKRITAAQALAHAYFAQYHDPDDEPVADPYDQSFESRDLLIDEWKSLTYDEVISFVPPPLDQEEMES

HN5 = experiment: Antiproliferative activity against human HN5 cells after 3 days by methylene blue stain technique; type: functional, cell-based; details: HN5, 72 h
NCI-H460 = experiment: Antiproliferative activity against human H460 cells after 3 days by methylene blue stain technique; type: functional, cell-based; details: NCI-H460, 72 h
[6] = AUC in mouse at 10 mg/kg, po; type: ADME, organism-based; design: dose 10 mg/kg, route oral; details: plasma
[7] = target: Epidermal growth factor receptor (Homo sapiens, UniProt P00533); experiment: Inhibition of EGFR
Sequence of Epidermal growth factor receptor (P00533 whole entry): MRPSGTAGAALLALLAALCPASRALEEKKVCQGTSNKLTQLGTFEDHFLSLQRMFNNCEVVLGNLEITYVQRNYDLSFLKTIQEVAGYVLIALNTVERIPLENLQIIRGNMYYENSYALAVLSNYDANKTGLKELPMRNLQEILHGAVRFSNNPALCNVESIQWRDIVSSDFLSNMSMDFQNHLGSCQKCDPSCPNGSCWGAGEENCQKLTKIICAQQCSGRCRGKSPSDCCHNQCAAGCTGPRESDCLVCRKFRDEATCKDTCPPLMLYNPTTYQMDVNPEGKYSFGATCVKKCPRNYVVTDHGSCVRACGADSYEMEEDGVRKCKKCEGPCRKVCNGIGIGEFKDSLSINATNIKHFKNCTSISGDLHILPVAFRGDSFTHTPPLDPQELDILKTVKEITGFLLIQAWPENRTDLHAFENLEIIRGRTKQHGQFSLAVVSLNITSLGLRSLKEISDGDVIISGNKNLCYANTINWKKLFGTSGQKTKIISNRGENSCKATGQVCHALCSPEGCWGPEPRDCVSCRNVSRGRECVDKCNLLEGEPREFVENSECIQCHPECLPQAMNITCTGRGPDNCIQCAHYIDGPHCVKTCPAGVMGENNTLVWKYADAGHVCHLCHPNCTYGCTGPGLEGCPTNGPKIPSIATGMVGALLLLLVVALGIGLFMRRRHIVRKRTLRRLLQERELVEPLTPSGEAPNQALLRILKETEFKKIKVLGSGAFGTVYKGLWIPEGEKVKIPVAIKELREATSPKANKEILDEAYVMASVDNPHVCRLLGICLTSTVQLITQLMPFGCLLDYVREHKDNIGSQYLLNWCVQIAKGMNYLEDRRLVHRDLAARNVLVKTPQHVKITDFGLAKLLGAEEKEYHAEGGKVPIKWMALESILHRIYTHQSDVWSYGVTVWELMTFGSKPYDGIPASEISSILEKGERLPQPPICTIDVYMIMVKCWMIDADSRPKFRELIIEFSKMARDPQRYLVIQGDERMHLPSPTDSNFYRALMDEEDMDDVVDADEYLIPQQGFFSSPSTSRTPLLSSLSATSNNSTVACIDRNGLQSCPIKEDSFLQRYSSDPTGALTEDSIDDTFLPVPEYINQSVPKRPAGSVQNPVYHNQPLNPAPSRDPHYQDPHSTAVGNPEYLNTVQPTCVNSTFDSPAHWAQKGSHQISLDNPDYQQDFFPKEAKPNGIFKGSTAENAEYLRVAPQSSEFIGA

[8] = target: Vascular endothelial growth factor receptor 3 (Homo sapiens, UniProt P35916); experiment: Inhibition of VEGFR3
Sequence of Vascular endothelial growth factor receptor 3 (P35916 whole entry): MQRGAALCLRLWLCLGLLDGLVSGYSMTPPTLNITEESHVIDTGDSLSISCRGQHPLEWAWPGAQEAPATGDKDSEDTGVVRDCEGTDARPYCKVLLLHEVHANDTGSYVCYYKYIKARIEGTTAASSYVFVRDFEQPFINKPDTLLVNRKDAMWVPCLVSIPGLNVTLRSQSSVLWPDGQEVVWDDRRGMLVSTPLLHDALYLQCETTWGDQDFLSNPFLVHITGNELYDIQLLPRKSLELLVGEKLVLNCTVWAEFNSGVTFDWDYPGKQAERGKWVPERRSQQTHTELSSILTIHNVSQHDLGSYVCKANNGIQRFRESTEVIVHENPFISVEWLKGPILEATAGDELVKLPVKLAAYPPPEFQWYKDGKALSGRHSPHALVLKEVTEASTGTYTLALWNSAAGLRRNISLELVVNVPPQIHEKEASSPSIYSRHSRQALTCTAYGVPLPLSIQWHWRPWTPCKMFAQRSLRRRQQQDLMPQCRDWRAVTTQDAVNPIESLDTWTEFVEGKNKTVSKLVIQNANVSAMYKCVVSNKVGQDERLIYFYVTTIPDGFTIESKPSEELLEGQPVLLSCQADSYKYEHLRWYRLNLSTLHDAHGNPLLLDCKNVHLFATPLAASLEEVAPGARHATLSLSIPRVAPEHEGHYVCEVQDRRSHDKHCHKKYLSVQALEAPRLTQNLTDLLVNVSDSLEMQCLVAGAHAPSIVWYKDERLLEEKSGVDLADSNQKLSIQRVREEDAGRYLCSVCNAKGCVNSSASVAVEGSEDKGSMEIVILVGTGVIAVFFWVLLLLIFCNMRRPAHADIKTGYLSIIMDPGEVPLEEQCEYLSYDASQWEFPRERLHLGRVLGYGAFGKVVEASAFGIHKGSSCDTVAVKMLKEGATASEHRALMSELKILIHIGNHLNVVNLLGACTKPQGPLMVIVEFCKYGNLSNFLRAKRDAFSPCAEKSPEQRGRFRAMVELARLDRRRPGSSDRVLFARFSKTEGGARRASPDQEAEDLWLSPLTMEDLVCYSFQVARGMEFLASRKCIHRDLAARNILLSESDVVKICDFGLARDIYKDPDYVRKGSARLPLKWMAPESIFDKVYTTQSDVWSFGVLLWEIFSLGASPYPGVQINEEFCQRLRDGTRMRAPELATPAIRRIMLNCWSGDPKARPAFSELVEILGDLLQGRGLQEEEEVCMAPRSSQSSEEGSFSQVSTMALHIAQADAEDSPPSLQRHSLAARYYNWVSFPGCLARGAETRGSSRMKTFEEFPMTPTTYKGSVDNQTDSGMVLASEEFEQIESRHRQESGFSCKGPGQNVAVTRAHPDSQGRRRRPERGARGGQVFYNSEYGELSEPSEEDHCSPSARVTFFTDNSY

MCF7 = experiment: Antiproliferative activity against human MCF7 cells after 3 days by methylene blue stain technique; type: functional, cell-based; details: MCF7, 72 h
[9] = target: Proto-oncogene tyrosine-protein kinase Src (Homo sapiens, UniProt P12931); experiment: Inhibition of Src
Sequence of Proto-oncogene tyrosine-protein kinase Src (P12931 2-536 limits assumed): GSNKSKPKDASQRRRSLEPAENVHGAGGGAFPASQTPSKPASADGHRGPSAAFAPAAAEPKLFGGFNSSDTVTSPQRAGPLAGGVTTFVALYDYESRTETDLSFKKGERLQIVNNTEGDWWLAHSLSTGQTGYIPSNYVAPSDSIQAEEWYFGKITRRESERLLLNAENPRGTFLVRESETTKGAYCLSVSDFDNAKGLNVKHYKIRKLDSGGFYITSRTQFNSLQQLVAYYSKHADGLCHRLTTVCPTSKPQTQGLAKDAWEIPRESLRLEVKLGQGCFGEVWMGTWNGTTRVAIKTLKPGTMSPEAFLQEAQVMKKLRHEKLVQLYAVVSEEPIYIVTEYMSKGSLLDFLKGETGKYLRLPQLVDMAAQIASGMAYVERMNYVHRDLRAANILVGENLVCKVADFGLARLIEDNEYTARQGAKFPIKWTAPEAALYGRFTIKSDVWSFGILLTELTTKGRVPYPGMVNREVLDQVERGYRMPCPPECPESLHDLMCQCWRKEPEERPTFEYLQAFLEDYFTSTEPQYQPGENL

[10] = Inhibition of GSK3

| SMILES | pIC50 (HCT-116) | pIC50 [2] | also measured |
| --- | --- | --- | --- |
| COc1cc2ncn(-c3cc(OCC4CCCCC4)c(C(N)=O)s3)c2cc1OC | 5.51 | – | – |
| COc1cc2ncn(-c3cc(OCCc4ccccc4)c(C(N)=O)s3)c2cc1OC [GSK-204925A] | 4.62 | – | – |
| COc1cc2ncn(-c3cc(OCc4ccoc4)c(C(N)=O)s3)c2cc1OC | 4.72 | 6.72 | – |
| COc1cc2ncn(-c3cc(OCC4CCCC4)c(C(N)=O)s3)c2cc1OC | 5.47 | 7.47 | – |
| COc1cc2ncn(-c3cc(OCc4ccnc(Br)c4)c(C(N)=O)s3)c2cc1OC | 5.75 | 7.85 | – |
| COc1ccccc1COc1cc(-n2cnc3cc(OC)c(OC)cc32)sc1C(N)=O | 5.68 | 8.10 | – |
| NC(=O)c1sc(-n2cnc3ccccc32)cc1OCc1ccc(Cl)cc1 | – | 7.00 | – |
| COc1cc2ncn(-c3cc(OCc4ccc(S(C)(=O)=O)cc4)c(C(N)=O)s3)c2cc1OC | < 4.52 | 7.12 | – |
| COc1cc2ncn(-c3cc(OCc4ccncc4)c(C(N)=O)s3)c2cc1OC | 4.68 | 6.89 | – |
| NC(=O)c1sc(-n2cnc3ccccc32)cc1OCc1ccccc1 | – | 7.21 | – |
| COc1cc2ncn(-c3cc(OCc4cccc(N)c4)c(C(N)=O)s3)c2cc1OC | 5.64 | 7.68 | – |
| COc1cc2ncn(-c3cc(OCCCc4ccccc4)c(C(N)=O)s3)c2cc1OC | 5.11 | – | – |
| NC(=O)c1sc(-n2cnc3ccccc32)cc1OCc1cccc(Cl)c1 | – | 7.66 | – |
| Cc1ccc(COc2cc(-n3cnc4ccccc43)sc2C(N)=O)cc1 | – | 7.15 | – |
| COc1cc2ncn(-c3cc(OCc4ccccc4S(C)(=O)=O)c(C(N)=O)s3)c2cc1OC | 5.27 | 7.51 | – |
| COc1cc2ncn(-c3cc(OCc4cccc(C#N)c4)c(C(N)=O)s3)c2cc1OC | < 4.52 | 7.00 | – |
| COc1ccc(COc2cc(-n3cnc4cc(OC)c(OC)cc43)sc2C(N)=O)cc1 | 4.92 | 7.89 | – |
| COc1cc2ncn(-c3cc(OCc4cccs4)c(C(N)=O)s3)c2cc1OC [GSK-312948A] | 5.81 | 7.96 | – |
| COc1cc2ncn(-c3cc(OCc4ccccc4)c(C(N)=O)s3)c2cc1OC | 5.96 | 7.92 | – |
| COc1cc2ncn(-c3cc(OCc4ccccc4C(F)(F)F)c(-c4nnn[nH]4)s3)c2cc1OC | < 4.52 | – | – |
| COc1cc2ncn(-c3cc(OCc4sccc4Cl)c(C(N)=O)s3)c2cc1OC | 5.83 | 8.70 | – |
| COc1cc2ncn(-c3cc(OCc4cccc(N(C)C)c4)c(C(N)=O)s3)c2cc1OC | 5.46 | 7.51 | – |
| COc1cc2ncn(-c3cc(OCc4ccsc4)c(C(N)=O)s3)c2cc1OC | 5.82 | 7.77 | – |
| COc1cc2ncn(-c3cc(OCc4ccco4)c(C(N)=O)s3)c2cc1OC | < 4.60 | 7.57 | – |

Second part, led by results:

| pIC50 (HCT-116) | pIC50 [2] | SMILES | also measured |
| --- | --- | --- | --- |
| 6.16 | 8.70 | COc1cc2ncn(-c3cc(OCc4ccccc4C(F)(F)F)c(C(N)=O)s3)c2cc1OC [GW843682X] | pIC50 (NCI-N87): 6.22; Vd [1]: 1.5 L/kg; pIC50 (PC-3): 5.17; pIC50 (RKO): 6.40; pIC50 (A549): 6.39; clearance [3]: 47.4 mL/min/kg; bioavailability [4]: 14%; pIC50 [5]: < 4.82; pIC50 (HN5): 6.17; pIC50 (NCI-H460): 6.42; AUC [6]: 489 ng·h/mL; pIC50 [7]: < 4.32; pIC50 [8]: 7.04; pIC50 (MCF7): 6.25; pIC50 [9]: < 4.52; pIC50 [10]: < 4.82 |
| < 4.52 | 6.52 | NC(=O)c1sc(-n2cnc3cc(C(F)(F)F)ccc32)cc1OCc1ccccc1Br [GW853609X] | – |
| – | < 6.00 | COC(=O)c1sc(-n2cnc3cc(OC)c(OC)cc32)cc1OCc1ccccc1C(F)(F)F [GSK-1030058A] | – |
| 5.94 | 8.30 | COc1cc2ncn(-c3cc(OCc4ccccc4OC(F)(F)F)c(C(N)=O)s3)c2cc1OC | – |
| – | 7.46 | COc1ccc(COc2cc(-n3cnc4ccccc43)sc2C(N)=O)cc1 | – |
| < 4.52 | 8.22 | COc1cc2ncn(-c3cc(OCc4ccccc4C(F)(F)F)c(C(N)=S)s3)c2cc1OC | – |
| 5.53 | 7.92 | CS(=O)(=O)c1ccc2ncn(-c3cc(OCc4ccccc4C(F)(F)F)c(C(N)=O)s3)c2c1 | – |
| 6.00 | 8.70 | COc1cc2ncn(-c3cc(OCc4ccccc4Cl)c(C(N)=O)s3)c2cc1OC [GW852849X] | – |
| – | 7.92 | NC(=O)c1sc(-n2cnc3ccccc32)cc1OCc1ccccc1Cl | – |
| – | 7.07 | COc1cc2ncn(-c3cc(OCc4ccccc4C(F)(F)F)c(C(C)=O)s3)c2cc1OC [GSK-1030059A] | – |
| 5.77 | 8.40 | Cc1ccccc1COc1cc(-n2cnc3ccc(Cl)cc32)sc1C(N)=O | – |
| 5.57 | 8.10 | COc1ccc2c(c1)ncn2-c1cc(OCc2ccccc2C(F)(F)F)c(C(N)=O)s1 | – |
| – | 7.92 | Cc1cccc(COc2cc(-n3cnc4ccccc43)sc2C(N)=O)c1 | – |
| – | 7.55 | COc1cccc(COc2cc(-n3cnc4ccccc43)sc2C(N)=O)c1 [GW804482X] | – |
| – | 7.96 | NC(=O)c1sc(-n2cnc3ccccc32)cc1OCc1ccccc1Br [GSK-1023156A] | – |
| – | < 6.00 | CNC(=O)c1sc(-n2cnc3cc(OC)c(OC)cc32)cc1OCc1ccccc1C(F)(F)F [GSK-1030061A] | – |
| – | 6.15 | COc1cc2ncn(-c3cc(OCc4ccccc4C(F)(F)F)c(C#N)s3)c2cc1OC | – |
| – | 7.92 | COc1ccccc1COc1cc(-n2cnc3ccccc32)sc1C(N)=O | – |
| – | 7.85 | NC(=O)c1sc(-n2cnc3ccccc32)cc1OCc1ccccc1F | – |
| < 4.55 | 7.68 | Cc1ccccc1COc1cc(-n2cnc3cc(Cl)ccc32)sc1C(N)=O | – |
| < 4.52 | 6.60 | CS(=O)(=O)c1ccc2c(c1)ncn2-c1cc(OCc2ccccc2C(F)(F)F)c(C(N)=O)s1 | – |
| – | < 6.00 | COc1cc2ncn(-c3cc(OCc4ccccc4C(F)(F)F)c(C(=O)N(C)C)s3)c2cc1OC [GSK-1030062A] | – |
| 5.12 | – | COc1cc2ncn(-c3cc(OCc4ccccc4C(F)(F)F)c(C(=O)O)s3)c2cc1OC | – |
| 5.91 | 8.70 | COc1ccc2ncn(-c3cc(OCc4ccccc4C(F)(F)F)c(C(N)=O)s3)c2c1 | – |
| – | 7.92 | Cc1ccccc1COc1cc(-n2cnc3ccccc32)sc1C(N)=O | – |
| 5.58 | 7.77 | COc1cc2ncn(-c3cc(OCc4ccccc4C(C)=O)c(C(N)=O)s3)c2cc1OC | – |
| 5.58 | 8.22 | COc1cc2ncn(-c3cc(OCc4ccccc4C#N)c(C(N)=O)s3)c2cc1OC | – |
| 5.44 | 8.05 | NC(=O)c1sc(-n2cnc3ccc(C(F)(F)F)cc32)cc1OCc1ccccc1Br [GW853606X] | – |
| 6.03 | 8.70 | COc1cc2ncn(-c3cc(OCc4ccccc4Br)c(C(N)=O)s3)c2cc1OC | – |
